In article PMC3445653 (Neuropharmacology, 2012):
“Also recorded” adds a separate entry of the source. Like-named read-outs stand apart in the source and are kept apart here.

Columns and labels:
PKMζ [1] = target: T1, PKMζ (Homo sapiens, UniProt Q05513); experiment: PKMζ phosphorylation assay, PKCε substrate; assay type: biochemical
T1 sequence (Q05513 1-409 isoform Q05513-2): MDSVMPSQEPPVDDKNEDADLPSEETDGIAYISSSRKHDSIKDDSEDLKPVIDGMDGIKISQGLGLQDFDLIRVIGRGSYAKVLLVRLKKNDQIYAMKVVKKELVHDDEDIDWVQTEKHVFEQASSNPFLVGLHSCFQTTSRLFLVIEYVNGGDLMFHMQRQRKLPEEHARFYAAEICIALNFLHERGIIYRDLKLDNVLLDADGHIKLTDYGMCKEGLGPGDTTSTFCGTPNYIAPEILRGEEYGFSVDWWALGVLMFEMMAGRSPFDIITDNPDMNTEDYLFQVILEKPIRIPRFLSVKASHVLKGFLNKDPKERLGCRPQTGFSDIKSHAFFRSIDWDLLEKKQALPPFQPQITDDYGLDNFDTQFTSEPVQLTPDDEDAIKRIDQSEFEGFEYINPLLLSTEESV

PKMζ-RFP fusion protein = settings: ref Wu-Zhang et al., 2012, cited from earlier work
catalytic domain of PKC = settings: ref Herbert et al., 1990, cited from earlier work
PKMζ [2] = target: T1, PKMζ; settings: ref Ling et al., 2002; cited from earlier work
LTP induction = settings: 100 nM; hippocampal slices; ref Ling et al., 2002; cited from earlier work
[3] = test system: baseline fEPSPs in hippocampal slices; experiment: Baseline fEPSP in hippocampal slices; assay type: cell-based, Sprague Dawley rats; settings: 100 nM; p = 0.8 between 10 and 60 min; n = 4
LTP maintenance = settings: cited from earlier work
[4] = test system: PDK1 phosphorylation of N-terminally tagged, eGFP-PKMζ overexpressed in 293T cells; experiment: Activation loop phosphorylation of eGFP-PKMζ overexpressed in 293T cells; assay type: cell-based; settings: 100 nM for 4 hr; A. Tcherepanov and T. C. Sacktor, unpublished data
[5] = test system: PDK1 phosphorylation of PKMζ (T410); experiment: Activation loop; assay type: cell-based, Sprague Dawley rats; settings: 100 nM for 4 hr, control vs staurosporine p = 0.9, n = 5
[6] = test system: baseline postsynaptic AMPAR responses in CA1 pyramidal cells of hippocampal slices; experiment: Baseline postsynaptic AMPAR-mediated EPSCs; assay type: cell-based, Sprague Dawley rats; settings: 5 μM scrambled ZIP; p = 0.6, 1 min before application vs 15 min after; n = 4

Q: What does the source list for COc1ccc2c(c[n+](C)c3c4cc5c(cc4ccc23)OCO5)c1OC [chelerythrine]?
A: inhibition of PKMζ, 10 μM DTT (PKMζ [1]; DTT 10 μM, PKMζ 5 nM, 25 μM PKCε substrate, n = 4): effective; inhibition of PKMζ, 1 mM DTT (PKMζ [1]; DTT 1 mM, PKMζ 5 nM, 25 μM PKCε substrate, n = 4): much less effective; sensitivity to redox state (PKMζ [1]; high levels of dithiothreitol (DTT), PKMζ 5 nM): redox-sensitive inhibitor of PKMζ; also recorded: sensitive to redox state; inhibition of PKMζ fusion protein in transfected cultured cells (PKMζ-RFP fusion protein): did not inhibit; mode of inhibition (catalytic domain of PKC; inhibition of substrate binding): competitive inhibitors of substrate binding; inhibition of catalytic domain of PKC (catalytic domain of PKC; Thompson and Fields, 1996): inhibitor of the catalytic domain of PKC; inhibition of PKM forms (PKMζ [2]): highly effective on PKM forms; also recorded: particularly effective on PKM forms

Q: For CN[C@@H]1C[C@H]2O[C@@](C)([C@@H]1OC)n1c3ccccc3c3c4c(c5c6ccccc6n2c5c31)C(=O)NC4 [staurosporine], which “effect on LTP induction” value (LTP induction) is on record?
A: Its value is “prevented LTP induction; also recorded: block LTP induction”.

Q: And the “effect on baseline fEPSP” value [3]?
A: The value was “no effect on baseline”.

Q: What about the “activation loop phosphorylation of overexpressed PKMζ-RFP” value (PKMζ-RFP fusion protein; cultured cells) of the same compound?
A: The value was “reduce activation loop phosphorylation”.

Q: And the “effect on LTP maintenance” value (LTP maintenance; 100 nM, 4 hours, hippocampal slices, ref Ling et al., 2002)?
A: The value was “does not reverse LTP maintenance; also recorded: but not LTP maintenance”.

Q: What about the “PDK1 phosphorylation of eGFP-PKMζ” value [4] of the same compound?
A: The value was “no effect”.

Q: And the “phosphorylation state of the activation loop of PKMζ (T410P)” value [5]?
A: The value was “no effect”.

Q: What about the “phosphorylation state of the activation loop of PKMζ (T410P)” value ([5]; listed as Staurosporine) of the same compound?
A: The value was “does not alter the phosphorylation state”.

Q: What does the source list for myr-RLYRKRIWRSAGR-OH [scrambled ZIP]?
A: efficacy on inhibiting PKMζ biochemically in vitro relative to ZIP (PKMζ [1]; Fig. 4A, right, compared with ZIP): less effective; inhibition of PKMζ at higher doses (PKMζ [1]; higher doses, Fig. 4A, right): will also inhibit PKMζ at higher doses; effect on LTP maintenance (LTP maintenance; dose equivalent to ZIP (5 μM), ref Serrano et al., 2005): ineffective; effect on baseline postsynaptic AMPAR responses [6]: no effect
